The record followed here is PMC13210772, “Dual FLT3/MAPK14 Proteolysis-Targeting Chimera (PROTAC) Induces Potent Acute Myeloid Leukemia Cell Death” (Pharmaceuticals, 2026).

What all share (experiment): NanoBRET CELLinib128
Format in all cases: binding

In one experiment the target is T1, NUAK1 (Homo sapiens, UniProt O60285).
T1 construct: Full-length kinase ORF (Promega, Madison, WI, USA) cloned in frame with a NanoLuc-vector was transfected into HEK293T cells; host or cells: HEK293T
As to conditions: 1 µM; 100% no effect, 0% complete tracer displacement. The procedure: (§1) To get an impression about the binding strength of the PROTAC MA191 and the reference inhibitor MA68 to other kinases besides FLT3-ITD the binding on a kinase panel of further 128 representative protein kinases at 1 μM concentration was tested using the NanoBRET^TM cellular target engagement assay (CELLinib128 assay, CELLinib GmbH, Frankfurt, Germany). […] In none of the 128 kinases MA191 was able to displace the tracer (inhibitor) used by more than 50%, Table S1, Supplementary Information).
(§2) The CELLinib128 assay was performed by CELLinib GmbH, Frankfurt (Germany) as described previously. In brief: Full-length kinase ORF (Promega, Madison, WI, USA) cloned in frame with a NanoLuc-vector was transfected into HEK293T cells in Opti-MEM without phenol red (Life Technologies, Carlsbad, CA, USA) at a density of 2 × 10^5 cells/mL using FuGENE HD (Promega, E2312) and proteins were allowed to express for 20 h. For CDKs, where indicated below, an excess of an activator without an NLuc-fusion was cotransfected. […] The system was allowed to equilibrate at 37 °C for 2 h and 5% CO2 prior to BRET measurements. For PKCs, a chemical activator PMA was added in a final concentration of 1 µM was added together with test compounds and tracers (Promega, V1171). To measure BRET, NanoBRET^TM NanoGlo substrate + extracellular NanoLuc inhibitor (Promega, N2160) were added as per the manufacturer’s protocol, and filtered luminescence was measured (450 nm BP filter (donor) and 610 nm LP filter (acceptor)). For the 1-shot test compounds, data were normalized to the tracer control and the background control or control compound plateau and an average and SD were calculated. […] For the control compounds competitive displacement data were normalized to the tracer Ctrl and the background Ctrl and then plotted and fitted using GraphPad Prism 10 software using a normalized 3-parameter curve fit with the following equation: Y = 100/(1 + 10^X−LogIC50).

The next experiment addresses T2, FGFR4 (Homo sapiens, UniProt P22455).
T2 construct: Full-length kinase ORF (Promega, Madison, WI, USA) cloned in frame with a NanoLuc-vector was transfected into HEK293T cells; host or cells: HEK293T
Particulars: 100% no effect, 0% complete tracer displacement, read-out: Tracer bound. The procedure: as §1, §2

The target in the next experiment is T3, MUSK (Homo sapiens, UniProt O15146).
T3 construct: Full-length kinase ORF (Promega, Madison, WI, USA) cloned in frame with a NanoLuc-vector was transfected into HEK293T cells; host or cells: HEK293T
Particulars: 100% no effect, 0% complete tracer displacement, read-out: Tracer bound. Here is the method: as §1, §2

Another experiment deals with T4, BRSK1 (Homo sapiens, UniProt Q8TDC3).
T4 construct: Full-length kinase ORF (Promega, Madison, WI, USA) cloned in frame with a NanoLuc-vector was transfected into HEK293T cells; host or cells: HEK293T
As to conditions: 100% no effect, 0% complete tracer displacement, read-out: Tracer bound. Here is the method: as §1, §2

For another experiment, the target named is T5, CDK3-CCNE1 (Homo sapiens, UniProt Q00526).
T5 construct: Full-length kinase ORF (Promega, Madison, WI, USA) cloned in frame with a NanoLuc-vector was transfected into HEK293T cells; host or cells: HEK293T
Particulars: 1 µM; 100% no effect, 0% complete tracer displacement. The procedure: as §1, §2

The target of the next experiment is T6, STK38L (Homo sapiens, UniProt Q9Y2H1).
T6 construct: Full-length kinase ORF (Promega, Madison, WI, USA) cloned in frame with a NanoLuc-vector was transfected into HEK293T cells; host or cells: HEK293T
As to conditions: 100% no effect, 0% complete tracer displacement, read-out: Tracer bound. Here is the method:
as §1, §2

In a further experiment the target is T7, NEK1 (Homo sapiens, UniProt Q96PY6).
T7 construct: Full-length kinase ORF (Promega, Madison, WI, USA) cloned in frame with a NanoLuc-vector was transfected into HEK293T cells; host or cells: HEK293T
Particulars: 100% no effect, 0% complete tracer displacement, read-out: Tracer bound. The procedure: as §1, §2

In a further experiment the target is T8, CSNK2A2 (Homo sapiens, UniProt P19784).
T8 construct: Full-length kinase ORF (Promega, Madison, WI, USA) cloned in frame with a NanoLuc-vector was transfected into HEK293T cells; host or cells: HEK293T
Particulars: 100% no effect, 0% complete tracer displacement, read-out: Tracer bound. Here is the method: as §1, §2

A further experiment deals with T9, RPS6KA2 (Homo sapiens, UniProt Q15349).
T9 construct: Full-length kinase ORF (Promega, Madison, WI, USA) cloned in frame with a NanoLuc-vector was transfected into HEK293T cells; host or cells: HEK293T
Particulars: 100% no effect, 0% complete tracer displacement, read-out: Tracer bound. Here is the method: as §1, §2

In another experiment the target is T10, STK3 (Homo sapiens, UniProt Q13188).
T10 construct: Full-length kinase ORF (Promega, Madison, WI, USA) cloned in frame with a NanoLuc-vector was transfected into HEK293T cells; host or cells: HEK293T
Particulars: 100% no effect, 0% complete tracer displacement, read-out: Tracer bound. The procedure:
as §1, §2

The next experiment deals with T11, IRAK4 (Homo sapiens, UniProt Q9NWZ3).
T11 construct: Full-length kinase ORF (Promega, Madison, WI, USA) cloned in frame with a NanoLuc-vector was transfected into HEK293T cells; host or cells: HEK293T
Particulars: 1 µM; 100% no effect, 0% complete tracer displacement. Here is the method: as §1, §2

The target of another experiment is T12, TNK2 (Homo sapiens, UniProt Q07912).
T12 construct: Full-length kinase ORF (Promega, Madison, WI, USA) cloned in frame with a NanoLuc-vector; host or cells: HEK293T
Particulars: 100% no effect, 0% complete tracer displacement, read-out: Tracer bound. Here is the method:
as §1, §2

The target of a further experiment is T13, TEK (Homo sapiens, UniProt Q02763).
T13 construct: Full-length kinase ORF (Promega, Madison, WI, USA) cloned in frame with a NanoLuc-vector was transfected into HEK293T cells; host or cells: HEK293T
As to conditions: 100% no effect, 0% complete tracer displacement, read-out: Tracer bound. Here is the method:
as §1, §2

The next experiment deals with T14, SNRK (Homo sapiens, UniProt Q9NRH2).
T14 construct: Full-length kinase ORF (Promega, Madison, WI, USA) cloned in frame with a NanoLuc-vector was transfected into HEK293T cells; host or cells: HEK293T
Particulars: 100% no effect, 0% complete tracer displacement, read-out: Tracer bound. Here is the method: as §1, §2

The target of another experiment is T15, LATS1 (Homo sapiens, UniProt O95835).
T15 construct: Full-length kinase ORF (Promega, Madison, WI, USA) cloned in frame with a NanoLuc-vector was transfected into HEK293T cells; host or cells: HEK293T
As to conditions: 100% no effect, 0% complete tracer displacement, read-out: Tracer bound. Here is the method: as §1, §2

T12 sequence (Q07912 whole entry): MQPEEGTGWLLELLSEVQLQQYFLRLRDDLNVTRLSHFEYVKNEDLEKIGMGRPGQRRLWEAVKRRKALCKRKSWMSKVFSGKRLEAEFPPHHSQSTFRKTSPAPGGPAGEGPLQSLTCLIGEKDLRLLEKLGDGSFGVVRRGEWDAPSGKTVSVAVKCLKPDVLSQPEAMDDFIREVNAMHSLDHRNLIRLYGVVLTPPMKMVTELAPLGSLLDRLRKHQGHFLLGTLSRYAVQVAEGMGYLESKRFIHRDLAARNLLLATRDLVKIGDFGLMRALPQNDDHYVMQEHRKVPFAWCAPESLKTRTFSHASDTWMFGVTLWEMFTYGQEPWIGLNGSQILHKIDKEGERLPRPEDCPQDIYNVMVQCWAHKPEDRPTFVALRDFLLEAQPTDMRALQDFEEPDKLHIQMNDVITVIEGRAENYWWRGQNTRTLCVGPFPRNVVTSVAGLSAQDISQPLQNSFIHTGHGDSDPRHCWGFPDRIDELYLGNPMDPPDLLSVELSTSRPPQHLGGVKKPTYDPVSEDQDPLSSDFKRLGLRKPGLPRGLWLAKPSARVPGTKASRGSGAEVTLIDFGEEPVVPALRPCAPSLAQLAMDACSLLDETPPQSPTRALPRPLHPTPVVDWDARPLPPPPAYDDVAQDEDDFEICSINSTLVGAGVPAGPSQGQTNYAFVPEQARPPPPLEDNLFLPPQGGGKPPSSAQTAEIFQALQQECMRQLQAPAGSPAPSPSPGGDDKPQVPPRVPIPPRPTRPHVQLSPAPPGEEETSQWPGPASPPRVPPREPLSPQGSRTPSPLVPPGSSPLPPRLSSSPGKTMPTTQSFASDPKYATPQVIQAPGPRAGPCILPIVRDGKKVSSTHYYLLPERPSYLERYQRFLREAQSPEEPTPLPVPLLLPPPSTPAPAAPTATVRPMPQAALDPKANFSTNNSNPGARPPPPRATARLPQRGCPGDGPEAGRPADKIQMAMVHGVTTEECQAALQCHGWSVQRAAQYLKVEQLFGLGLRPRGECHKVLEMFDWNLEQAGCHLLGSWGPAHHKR
T6 sequence (Q9Y2H1 whole entry): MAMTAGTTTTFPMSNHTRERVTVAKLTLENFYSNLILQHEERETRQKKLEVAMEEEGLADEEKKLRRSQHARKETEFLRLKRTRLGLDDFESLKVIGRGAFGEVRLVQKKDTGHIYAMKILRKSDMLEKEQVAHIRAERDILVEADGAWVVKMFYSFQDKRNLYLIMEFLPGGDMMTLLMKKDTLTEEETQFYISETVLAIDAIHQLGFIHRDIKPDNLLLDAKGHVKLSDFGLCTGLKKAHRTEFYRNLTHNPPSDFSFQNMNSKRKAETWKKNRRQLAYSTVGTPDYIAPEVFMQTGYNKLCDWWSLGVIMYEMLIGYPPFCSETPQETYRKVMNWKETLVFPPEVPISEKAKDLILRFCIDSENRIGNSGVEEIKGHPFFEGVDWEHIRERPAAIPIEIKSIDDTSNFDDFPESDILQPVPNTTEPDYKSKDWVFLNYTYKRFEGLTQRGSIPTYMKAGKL
T4 sequence (Q8TDC3 whole entry): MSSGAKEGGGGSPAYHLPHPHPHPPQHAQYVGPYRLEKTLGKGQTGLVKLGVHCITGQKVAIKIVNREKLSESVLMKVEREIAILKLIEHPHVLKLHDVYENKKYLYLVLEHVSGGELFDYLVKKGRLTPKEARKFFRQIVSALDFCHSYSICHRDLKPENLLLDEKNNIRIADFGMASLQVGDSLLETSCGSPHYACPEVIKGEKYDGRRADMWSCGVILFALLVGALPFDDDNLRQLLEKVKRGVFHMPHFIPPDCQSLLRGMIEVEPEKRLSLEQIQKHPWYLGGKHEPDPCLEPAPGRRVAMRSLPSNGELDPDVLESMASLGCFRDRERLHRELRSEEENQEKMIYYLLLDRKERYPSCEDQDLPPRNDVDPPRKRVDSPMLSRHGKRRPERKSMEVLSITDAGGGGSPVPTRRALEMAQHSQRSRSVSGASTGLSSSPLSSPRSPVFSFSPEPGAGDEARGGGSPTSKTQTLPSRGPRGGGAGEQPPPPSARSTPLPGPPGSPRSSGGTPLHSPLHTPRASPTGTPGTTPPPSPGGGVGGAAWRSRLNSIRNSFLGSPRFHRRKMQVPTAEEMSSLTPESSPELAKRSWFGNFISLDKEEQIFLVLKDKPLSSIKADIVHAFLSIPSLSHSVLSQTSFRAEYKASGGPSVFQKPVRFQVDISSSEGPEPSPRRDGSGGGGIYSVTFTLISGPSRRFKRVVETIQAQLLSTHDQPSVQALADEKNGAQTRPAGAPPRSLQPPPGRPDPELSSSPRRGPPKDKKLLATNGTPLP
T7 sequence (Q96PY6 whole entry): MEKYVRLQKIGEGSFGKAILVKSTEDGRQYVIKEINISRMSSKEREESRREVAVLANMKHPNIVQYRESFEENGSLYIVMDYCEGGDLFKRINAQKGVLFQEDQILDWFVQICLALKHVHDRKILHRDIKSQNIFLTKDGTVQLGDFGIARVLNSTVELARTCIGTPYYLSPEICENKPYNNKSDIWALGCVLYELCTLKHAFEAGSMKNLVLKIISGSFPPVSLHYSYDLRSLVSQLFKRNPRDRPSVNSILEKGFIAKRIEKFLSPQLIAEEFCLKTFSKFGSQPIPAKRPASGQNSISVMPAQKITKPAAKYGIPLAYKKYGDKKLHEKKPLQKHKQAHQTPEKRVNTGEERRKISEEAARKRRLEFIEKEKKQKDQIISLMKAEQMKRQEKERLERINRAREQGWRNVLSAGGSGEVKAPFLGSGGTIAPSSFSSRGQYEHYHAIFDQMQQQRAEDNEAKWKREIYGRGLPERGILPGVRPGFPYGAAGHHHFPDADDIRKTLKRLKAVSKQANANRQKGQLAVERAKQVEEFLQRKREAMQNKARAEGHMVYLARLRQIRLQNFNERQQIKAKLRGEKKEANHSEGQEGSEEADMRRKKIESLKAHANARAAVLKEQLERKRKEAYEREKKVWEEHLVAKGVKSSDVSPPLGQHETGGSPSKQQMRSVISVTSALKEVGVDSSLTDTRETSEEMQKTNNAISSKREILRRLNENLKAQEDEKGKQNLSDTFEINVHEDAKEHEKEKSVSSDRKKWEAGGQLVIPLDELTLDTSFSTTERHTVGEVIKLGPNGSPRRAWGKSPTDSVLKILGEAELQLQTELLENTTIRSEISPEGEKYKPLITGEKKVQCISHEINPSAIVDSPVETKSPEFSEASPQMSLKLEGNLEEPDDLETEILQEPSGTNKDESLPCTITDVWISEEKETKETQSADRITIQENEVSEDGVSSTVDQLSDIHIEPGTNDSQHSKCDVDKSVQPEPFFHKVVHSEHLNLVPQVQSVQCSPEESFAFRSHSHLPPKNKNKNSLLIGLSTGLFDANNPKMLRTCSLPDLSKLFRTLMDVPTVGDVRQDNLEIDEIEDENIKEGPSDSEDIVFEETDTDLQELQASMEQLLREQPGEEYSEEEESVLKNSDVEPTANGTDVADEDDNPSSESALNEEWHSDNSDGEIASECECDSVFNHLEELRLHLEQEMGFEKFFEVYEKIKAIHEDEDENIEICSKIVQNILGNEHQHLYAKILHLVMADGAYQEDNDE
T1 sequence (O60285 whole entry): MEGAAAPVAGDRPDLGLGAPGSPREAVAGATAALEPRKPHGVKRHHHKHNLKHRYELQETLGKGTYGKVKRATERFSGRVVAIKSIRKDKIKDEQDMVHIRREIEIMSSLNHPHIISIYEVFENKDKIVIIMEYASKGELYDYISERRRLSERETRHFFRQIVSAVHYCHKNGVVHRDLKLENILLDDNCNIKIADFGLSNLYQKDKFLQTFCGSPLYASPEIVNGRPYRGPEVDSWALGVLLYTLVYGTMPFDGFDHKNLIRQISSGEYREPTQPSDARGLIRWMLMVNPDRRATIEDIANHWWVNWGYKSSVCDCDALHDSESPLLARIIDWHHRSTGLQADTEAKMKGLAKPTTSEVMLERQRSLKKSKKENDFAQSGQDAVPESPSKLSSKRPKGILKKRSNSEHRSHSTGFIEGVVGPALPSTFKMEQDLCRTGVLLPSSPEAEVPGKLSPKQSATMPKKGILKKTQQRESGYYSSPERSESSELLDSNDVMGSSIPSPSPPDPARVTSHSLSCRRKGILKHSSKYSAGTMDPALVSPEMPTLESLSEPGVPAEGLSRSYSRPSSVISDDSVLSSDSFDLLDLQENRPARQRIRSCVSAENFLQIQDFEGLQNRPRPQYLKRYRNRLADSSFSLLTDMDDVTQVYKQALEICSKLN
T10 sequence (Q13188 whole entry): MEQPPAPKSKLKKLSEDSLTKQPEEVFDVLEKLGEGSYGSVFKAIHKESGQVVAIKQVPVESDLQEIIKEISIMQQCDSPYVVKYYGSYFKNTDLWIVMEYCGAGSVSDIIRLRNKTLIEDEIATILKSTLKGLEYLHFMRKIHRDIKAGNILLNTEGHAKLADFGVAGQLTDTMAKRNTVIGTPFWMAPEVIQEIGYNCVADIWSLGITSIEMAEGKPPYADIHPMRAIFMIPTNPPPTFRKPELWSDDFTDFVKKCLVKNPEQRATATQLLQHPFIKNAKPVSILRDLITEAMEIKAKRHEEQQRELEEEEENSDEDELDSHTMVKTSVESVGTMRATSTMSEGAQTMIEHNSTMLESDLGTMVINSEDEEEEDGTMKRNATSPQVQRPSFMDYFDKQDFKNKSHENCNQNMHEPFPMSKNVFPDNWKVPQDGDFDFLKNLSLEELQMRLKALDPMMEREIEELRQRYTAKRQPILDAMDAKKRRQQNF
T8 sequence (P19784 whole entry): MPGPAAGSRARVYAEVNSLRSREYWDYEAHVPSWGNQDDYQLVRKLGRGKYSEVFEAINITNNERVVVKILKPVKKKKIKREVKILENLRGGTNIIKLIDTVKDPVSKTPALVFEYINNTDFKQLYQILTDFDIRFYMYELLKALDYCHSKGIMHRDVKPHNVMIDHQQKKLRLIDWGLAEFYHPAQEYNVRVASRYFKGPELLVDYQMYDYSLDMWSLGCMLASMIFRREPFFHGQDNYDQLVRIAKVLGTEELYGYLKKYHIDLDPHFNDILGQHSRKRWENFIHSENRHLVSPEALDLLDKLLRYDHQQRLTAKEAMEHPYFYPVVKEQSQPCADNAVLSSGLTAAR

For the compound `Cc1ncsc1-c1ccc([C@H](C)NC(=O)[C@@H]2C[C@@H](O)CN2C(=O)[C@@H](NC(=O)[C@H]2CC[C@H](C(=O)N3CCN(CCNC(=O)c4cc(Oc5ccc(NC(=O)Nc6cc(C(C)(C)C)on6)cc5)ccn4)CC3)CC2)C(C)(C)C)cc1` [MA191, 4-(4-(3-(5-(tert-Butyl)isoxazol-3-yl)ureido)phenoxy)-N-(2-(4-(trans-4-(((S)-1-((2S,4R)-4-hydroxy-2-(((S)-1-(4-(4-methylthiazol-5-yl)phenyl)ethyl)carbamoyl)pyrrolidin-1-yl)-3,3-dimethyl-1-oxobutan-2-yl)carbamoyl)cyclohexanecarbonyl)piperazin-1-yl)ethyl)picolinamide], the Tracer bound was 120.0% on NUAK1, 117.0% at CDK3-CCNE1 and 114.7% on IRAK4. For the same compound, the remaining activity at 1 µM worked out at 92.7% at FGFR4; 66% at MUSK; 107% on BRSK1; 90% on STK38L; 95.9% on NEK1; 114% at CSNK2A2. For the same compound, the remaining activity at 1 µM on RPS6KA2 was found to be 114%; on STK3, 105%; on TNK2 it was 118%; at TEK it was 85.7%; at SNRK, 97%; on LATS1 it was 97.8%.
